Results on one compound are retold here after US10058566B2, “Sulfated polygulonic acid polysaccharide or pharmaceutical salt thereof, preparation method therefor and use thereof” (SHANGHAI INSTITUTE OF MATERIA MEDICA CHINESE ACADEMY OF …, priority 2013, dated 2018).

In test [1] the test system is human breast cancer MDA-MB-435 orthotopic xenografts. Kind of test: Growth of human breast cancer MDA-MB-435 orthotopic xenografts in nude mice. Type of test: in vivo, nude mice (BALB/cA). To be noted: 5 mg/kg, intravenous injection once per week for 7 continuous weeks. The procedure:
(§1) Human breast cancer MDA-MB-435 cells (from American Type Culture Collection, ATCC, Rockville, Md., USA) in an exponential growth phase at a concentration of 2.5×10^7 cells/ml were inoculated into the second left mammary fat pad of 4-5-week old female nude mice (BALB/cA, provided by Shanghai Institute of Materia Medica, Chinese Academy of Sciences). When the tumors were grown to the size of 100-200 mm^3, the animals were evenly divided according tumor volumes into a negative control group, a doxorubicin injection (Adriamycin, ADM) treatment group (positive control group), and 5 mg/kg and 20 mg/kg PGAS treatment groups (PGAS experimental groups), 20 mice/group. […] In the experiments, a vernier caliper was used to measure the diameter of tumors twice a week, and the tumor volume (V) was calculated following the formula below: V=½×a×b^2
in which, a and b represent the length and the width of tumors, respectively. The relative tumor volume (RTV) was calculated based on the measured results, using the calculation formula: RTVt=Vt/Vo; in which, V0 is the measured tumor volume when animals were divided to different dosing (i.e. d0), and Vt is the tumor volume on the day of measurement. […]
(§2) At this point of time, the animals are sacrificed and subjected to anti-tumor effect evaluation. […] Further, the effect of PGAS on angiogenesis in vivo was evaluated by immunohistochemical staining.
In general terms: A xenograft is tissue or cells of one species grown in another, often human tumour cells in immunodeficient mice.

Test [2] concerns lung metastasis of human breast cancer MDA-MB-435 orthotopic xenografts. Kind of test: Lung metastasis of human breast cancer MDA-MB-435 orthotopic xenografts. To be noted: 5 mg/kg, intravenous injection once per week for 7 continuous weeks. Type of test: in vivo, nude mice (BALB/cA). As to the method:
as §1
The animals were sacrificed 1 week after discontinuation of dosing. […] The number of lung metastasis nodes per lung was observed and recorded under a dissecting microscope. […] A part of lungs and orthotopic tumor tissues were fixed in 10% formalin, and angiogenesis in tumor tissues was determined by H&E staining and immunohistochemistry.
as §2

Take `COc1cccc2c1C(=O)c1c(O)c3c(c(O)c1C2=O)C[C@@](O)(C(=O)CO)C[C@@H]3O[C@H]1C[C@H](N)[C@H](O)[C@H](C)O1` [ADM, Doxorubicin]: the “relative tumor proliferation rate T/C” value in test [1] was 21.8%. Further, the “inhibition rate on lung metastasis” value in test [2] was found to be 89.8%.
